Common to all, as to format: cell-based
Test [1] relates to S. aureus NB01006-AVR005, gyrA (S84L), grlA (580F) and grlB (E471K). In words: microbe, parasite or virus in culture. Conditions: Staphylococcus aureus, 20 h, read-out: Antibacterial activity (MIC) NB01006-AVR005. A digest of the protocol: (§1)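 CAMHB, ~5×10^5 CFU/mL, 2-fold serial dilutions (final DMSO 1%), 35° C, ambient air, 20 h. Read OD600 plus visual check; MIC = lowest conc. with no visible growth, μg/mL.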

The subject of test [2] is S. pneumoniae ATCC 25922 (NB07001). Nature of the test: MIC by broth microdilution, S. pneumoniae NB07001. The following applies: Streptococcus pneumoniae, read-out: Antibacterial activity (MIC) NB07001. In short, it runs like this: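 CLSI broth microdilution in CAMHB, inoculum ~5×10^5 CFU/mL, two-fold compound dilutions at 1% final DMSO. Plates incubated 20 h at 35°C in ambient air; MIC (μg/mL) is the lowest concentration preventing visible growth, confirmed by OD600.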
Background: In broth dilution the organism is exposed to a series of concentrations in liquid medium.

Test [3] concerns S. aureus NB01080 fluoroquinolone-resistant clinical isolate. In words: MIC by broth microdilution, S. aureus NB01080. Conditions: Staphylococcus aureus, CAMHB, 35° C., 20 hours, read-out: Antibacterial activity (MIC) NB01080. In short, it runs like this: as §1
Test [4] deals with E. coli ATCC 25922 (NB27001). In words: MIC by broth microdilution, E. coli NB27001. Conditions: Escherichia coli, ATCC25922, CAMHB, 35° C., 20 hours, read-out: Antibacterial activity (MIC) NB27001. In short, it runs like this: as §1
The subject of test [5] is P. aeruginosa NB52019, wild-type PAO1 strain. Nature of the test: MIC by broth microdilution, P. aeruginosa NB52019. The following applies: Pseudomonas aeruginosa, CAMHB, 35° C., 20 hours, read-out: Antibacterial activity (MIC) NB52019. A digest of the protocol:
as §1

For test [6], the system named is S. aureus ATCC 49951 (NB01006). In words: MIC by broth microdilution, S. aureus NB01006. The following applies: Staphylococcus aureus, ATCC49951, CAMHB, 35° C., 20 hours, read-out: Antibacterial activity (MIC) NB01006. In short, it runs like this: as §1
Test [7] has as its system E. faecalis ATCC 29212 (NB04001). Nature of the test: MIC by broth microdilution, E. faecalis NB04001. Conditions: Enterococcus faecalis, ATCC29212, CAMHB, 35° C., 20 hours, read-out: Antibacterial activity (MIC) NB04001. A digest of the protocol:
as §1

14 compounds from patent publication US20180318311A1, “TRICYCLIC 2-QUINOLINONES AS ANTIBACTERIALS” (priority 2017, published 2018) can be followed below.

Converted amounts (≈) assume the structure as drawn. Where a name gives a salt, the structure may show the parent alone. Read-outs that look alike come from different tables or passages of the source. A value given as a limit tells only on which side of the number the result lay.

Turning to `C[C@H](N)[C@@H]1CCN(c2c(F)c(F)c3cc(C(=O)O)c(=O)n4c3c2OC[C@@H]4C)C1` [Example 13.2, (S)-10-((R)-3-((S)-1-aminoethyl)pyrrolidin-1-yl)-8,9-difluoro-3-methyl-5-oxo-2,3-dihydro-5H-[1,4]oxazino[2,3,4-ij]quinoline-6-carboxylic acid], the MIC in test [1] was less than 1 µg/mL; in test [2] (ATCC25922, 20 h) it was less than 1 µg/mL; in test [3], less than 1 µg/mL; in test [4] it was less than 1 µg/mL; in test [5], 1 to 32 µg/mL (≈ 2.54 to 81.3 µM); in test [6], less than 1 µg/mL. Besides, the MIC in test [7] is less than 1 µg/mL.

With `C[C@H]1COc2c(N3CCN(C)CC3)c(F)c(F)c3cc(C(=O)O)c(=O)n1c23` [Example 13.3], the MIC in test [1] is greater than 32 µg/mL; in test [2] (ATCC25922, S. pneumoniae, CAMHB supplemented with 5% lysed horse blood, 35° C., 20 hours), greater than 32 µg/mL; in test [3] it was greater than 32 µg/mL; in test [4], 1 to 32 µg/mL (≈ 2.64 to 84.4 µM); in test [5] it was greater than 32 µg/mL; in test [6], 1 to 32 µg/mL (≈ 2.64 to 84.4 µM). For the same compound, the MIC in test [7] is greater than 32 µg/mL.

For the compound `C[C@H]1COc2c(N3CCC(F)(CN)C3)c(F)c(F)c3cc(C(=O)O)c(=O)n1c23` (stereo partly drawn) [Example 13.5, (3S)-10-(3-(aminomethyl)-3-fluoropyrrolidin-1-yl)-8,9-difluoro-3-methyl-5-oxo-2,3-dihydro-5H-[1,4]oxazino[2,3,4-ij]quinoline-6-carboxylic acid], the MIC was 1 to 32 µg/mL (≈ 2.52 to 80.5 µM) in test [1]; less than 1 µg/mL in test [2] (ATCC25922, 20 h); 1 to 32 µg/mL (≈ 2.52 to 80.5 µM) in test [3]; 1 to 32 µg/mL (≈ 2.52 to 80.5 µM) in test [4]; greater than 32 µg/mL in test [5]; less than 1 µg/mL in test [6]. In test [7], the MIC is less than 1 µg/mL.

Regarding `C[C@H]1COc2c(N3CC[C@@H](C4(N)CCC4)C3)c(F)c(F)c3cc(C(=O)O)c(=O)n1c23` [Example 13.8, (S)-10-((R)-3-(1-aminocyclobutyl)pyrrolidin-1-yl)-8,9-difluoro-3-methyl-5-oxo-2,3-dihydro-5H-[1,4]oxazino[2,3,4-ij]quinoline-6-carboxylic acid], the MIC is less than 1 µg/mL in test [1]; less than 1 µg/mL in test [2] (ATCC25922, 20 h); less than 1 µg/mL in test [3]; 1 to 32 µg/mL (≈ 2.38 to 76.3 µM) in test [4]; 1 to 32 µg/mL (≈ 2.38 to 76.3 µM) in test [5]; less than 1 µg/mL in test [6]. Besides, the MIC in test [7] was less than 1 µg/mL.

For `C[C@H]1COc2c(N3CC[C@@H](C4(N)CC4)C3)c(F)c(N)c3cc(C(=O)O)c(=O)n1c23` [Example 14, (S)-8-amino-10-((R)-3-(1-aminocyclopropyl)pyrrolidin-1-yl)-9-fluoro-3-methyl-5-oxo-2,3-dihydro-5H-[1,4]oxazino[2,3,4-ij]quinoline-6-carboxylic acid hydrochloride salt], the MIC was 1 to 32 µg/mL in test [1]; less than 1 µg/mL in test [2] (ATCC25922, 20 h); 1 to 32 µg/mL in test [3]; 1 to 32 µg/mL in test [4]; greater than 32 µg/mL in test [5]; less than 1 µg/mL in test [6]. Further, the MIC in test [7] was less than 1 µg/mL.

With `COc1c(N2CC[C@@H](C3(N)CC3)C2)c2c3c(cc(C(=O)O)c(=O)n3[C@@H](C)CO2)c1N` [Example 15, (S)-8-amino-10-((R)-3-(1-aminocyclopropyl)pyrrolidin-1-yl)-9-methoxy-3-methyl-5-oxo-2,3-dihydro-5H-[1,4]oxazino[2,3,4-ij]quinoline-6-carboxylic acid formate salt], the MIC in test [1] is greater than 32 µg/mL; in test [2] (ATCC25922, 20 h), 1 to 32 µg/mL; in test [3], greater than 32 µg/mL; in test [4], greater than 32 µg/mL; in test [5], greater than 32 µg/mL; in test [6], greater than 32 µg/mL. Moreover, the MIC in test [7] is greater than 32 µg/mL.

With `COc1cc2cc(C(=O)O)c(=O)n3c2c(c1N1CC[C@@H](C2(N)CC2)C1)OC[C@@H]3C` [Example 16, (S)-10-((R)-3-(1-aminocyclopropyl)pyrrolidin-1-yl)-9-methoxy-3-methyl-5-oxo-2,3-dihydro-5H-[1,4]oxazino[2,3,4-ij]liquinoline-6-carboxylic acid formate salt], the MIC in test [1] was greater than 32 µg/mL; in test [2] (ATCC25922, 20 h) it was 1 to 32 µg/mL; in test [3], greater than 32 µg/mL; in test [4] it was greater than 32 µg/mL; in test [5], greater than 32 µg/mL; in test [6] it was greater than 32 µg/mL. Also, the MIC in test [7] was greater than 32 µg/mL.

Regarding `C[C@H]1COc2c(N3CC[C@@H](C4(N)CC4)C3)c(C#N)cc3cc(C(=O)O)c(=O)n1c23` [Example 17, (S)-10-((R)-3-(1-aminocyclopropyl)pyrrolidin-1-yl)-9-cyano-3-methyl-5-oxo-2,3-dihydro-5H-[1,4]oxazino[2,3,4-ij]quinoline-6-carboxylic acid trifluoroacetate salt], the MIC in test [1] is 1 to 32 µg/mL; in test [2] (ATCC25922, 20 h) it was less than 1 µg/mL; in test [3], 1 to 32 µg/mL; in test [4] it was greater than 32 µg/mL; in test [5] it was greater than 32 µg/mL; in test [6], less than 1 µg/mL. For the same compound, the MIC in test [7] is less than 1 µg/mL.

With `C[C@H]1COc2c(N3CC[C@@H](C4(N)CC4)C3)c(Cl)cc3cc(C(=O)O)c(=O)n1c23` [Example 18, (S)-10-((R)-3-(1-aminocyclopropyl)pyrrolidin-1-yl)-9-chloro-3-methyl-5-oxo-2,3-dihydro-5H-[1,4]oxazino[2,3,4-ij]quinoline-6-carboxylic acid hydrochloride salt], the MIC was greater than 32 µg/mL in test [1]; less than 1 µg/mL in test [2] (ATCC25922, 20 h); 1 to 32 µg/mL in test [3]; greater than 32 µg/mL in test [4]; greater than 32 µg/mL in test [5]; 1 to 32 µg/mL in test [6]. Besides, in test [7], the MIC was 1 to 32 µg/mL.

In the case of `C[C@H]1COc2c(N3CC[C@@H](C4(N)CC4)C3)c(F)c(Cl)c3cc(C(=O)O)c(=O)n1c23` [Example 19.1, (S)-10-((R)-3-(1-aminocyclopropyl)pyrrolidin-1-yl)-8-chloro-9-fluoro-3-methyl-5-oxo-2,3-dihydro-5H-[1,4]oxazino[2,3,4-ij]quinoline-6-carboxylic acid formate salt], the MIC in test [1] was less than 1 µg/mL; in test [2] (ATCC25922, 20 h) it was less than 1 µg/mL; in test [3], less than 1 µg/mL; in test [4], 1 to 32 µg/mL; in test [5], greater than 32 µg/mL; in test [6], less than 1 µg/mL. Further, the MIC in test [7] was less than 1 µg/mL.

As to `C[C@H](N)[C@@H]1CCN(c2c(F)c(Cl)c3cc(C(=O)O)c(=O)n4c3c2OC[C@@H]4C)C1` [Example 19.2, (S)-10-((R)-3-((S)-1-aminoethyl)pyrrolidin-1-yl)-8-chloro-9-fluoro-3-methyl-5-oxo-2,3-dihydro-5H-[1,4]oxazino[2,3,4-ij]quinoline-6-carboxylic acid], the MIC in test [1] was less than 1 µg/mL; in test [2] (ATCC25922, 20 h), less than 1 µg/mL; in test [3], less than 1 µg/mL; in test [4] it was less than 1 µg/mL; in test [5], 1 to 32 µg/mL (≈ 2.44 to 78.1 µM); in test [6] it was less than 1 µg/mL. Besides, the MIC in test [7] was less than 1 µg/mL.

In the case of `C[C@H]1COc2c(N3CC[C@@H](C4(N)CC4)C3)cc(N)c3cc(C(=O)O)c(=O)n1c23` [Example 20, (S)-8-amino-10-((R)-3-(1-aminocyclopropyl)pyrrolidin-1-yl)-3-methyl-5-oxo-2,3-dihydro-5H-[1,4]oxazino[2,3,4-ij]quinoline-6-carboxylic acid], the MIC was 1 to 32 µg/mL (≈ 2.6 to 83.2 µM) in test [1]; less than 1 µg/mL in test [2] (ATCC25922, 20 h); 1 to 32 µg/mL (≈ 2.6 to 83.2 µM) in test [3]; 1 to 32 µg/mL (≈ 2.6 to 83.2 µM) in test [4]; greater than 32 µg/mL in test [5]; less than 1 µg/mL in test [6]. In addition, in test [7], the MIC lay in the range of 1 to 32 µg/mL (≈ 2.6 to 83.2 µM).

Consider `C[C@H]1COc2c(N3CC[C@@H](C4(N)CC4)C3)c(F)c(C#N)c3cc(C(=O)O)c(=O)n1c23` [Example 21.1, (S)-10-((R)-3-(1-aminocyclopropyl)pyrrolidin-1-yl)-8-cyano-9-fluoro-3-methyl-5-oxo-2,3-dihydro-5H-[1,4]oxazino[2,3,4-ij]quinoline-6-carboxylic acid trifluoroacetate salt], for which the MIC in test [1] was less than 1 µg/mL; in test [2] (ATCC25922, 20 h) it was less than 1 µg/mL; in test [3] it was less than 1 µg/mL; in test [4], 1 to 32 µg/mL; in test [5], greater than 32 µg/mL; in test [6], less than 1 µg/mL. For the same compound, the MIC in test [7] is less than 1 µg/mL.

As for `C[C@H]1COc2c(N3CC[C@@H](C4(N)CC4)C3)cc(C#N)c3cc(C(=O)O)c(=O)n1c23` [Example 21.2, (S)-10-((R)-3-(1-aminocyclopropyl)pyrrolidin-1-yl)-8-cyano-3-methyl-5-oxo-2,3-dihydro-5H-[1,4]oxazino[2,3,4-ij]quinoline-6-carboxylic acid], the MIC in test [1] is 1 to 32 µg/mL (≈ 2.54 to 81.1 µM); in test [2] (ATCC25922, 20 h) it was less than 1 µg/mL; in test [3], 1 to 32 µg/mL (≈ 2.54 to 81.1 µM); in test [4] it was 1 to 32 µg/mL (≈ 2.54 to 81.1 µM); in test [5] it was greater than 32 µg/mL; in test [6], less than 1 µg/mL. Moreover, in test [7], the MIC was in the range of 1 to 32 µg/mL (≈ 2.54 to 81.1 µM).
